Reference: patent publication US12110293B2, “Substituted triazolo quinoxaline derivatives” (GRÜNENTHAL GMBH, priority 2018, dated 2024)

Target: T1, glucocorticoid receptor (Homo sapiens, UniProt P04150)
T1 construct: expressed in transfected cells
T1 sequence (P04150 524-758 limits assumed): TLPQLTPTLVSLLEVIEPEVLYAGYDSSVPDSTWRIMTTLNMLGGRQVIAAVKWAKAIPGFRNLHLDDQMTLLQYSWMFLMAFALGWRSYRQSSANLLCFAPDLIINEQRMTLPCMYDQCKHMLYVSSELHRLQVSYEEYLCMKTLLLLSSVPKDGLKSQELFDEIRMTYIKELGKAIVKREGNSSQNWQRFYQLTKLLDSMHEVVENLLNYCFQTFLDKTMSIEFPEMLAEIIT
Assay: Agonistic mode of action on the glucocorticoid receptor (CHO-Gal4/GR luciferase reporter cell line)
Format: cell-based
Conditions: range class observed in the agonistic assay or the antagonistic assay (CHO-Gal4/GR reporter cells); table does not say which mode applies per example
Outline: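 Agonism measured as dose-dependent luciferase luminescence (FLIPR Tetra) from a GAL4-UAS reporter driven by GAL4 DBD fused to GR ligand-binding domain in stable CHO cells. Eight half-log doses, 10 μM to 0.003 μM final in 0.5% DMSO, quadruplicate, on cells seeded 24 h earlier at 5000/well; EC50 derived.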

IC50 or EC50 (agonist or antagonist mode not specified) [µM]	Compound
< 0.1	Cc1c(-c2cc(F)cc3c(CC(F)(F)F)c[nH]c23)c(F)cc2c1-n1c(C)nnc1C(C)(C)N2 [Example 23, 7-fluoro-8-(5-fluoro-3-(2,2,2-trifluoroethyl)-1H-indol-7-yl)-1,4,4,9-tetramethyl-4,5-dihydro-[1,2,4]triazolo[4,3-a]quinoxaline]
0.1 to 1	Cc1c[nH]c2c(-c3c(C(F)F)cc4c(c3F)-n3c(C)nnc3C(C)(C)N4)cc(F)cc12 [Example 296, 7-(Difluoro-methyl)-9-fluoro-8-(5-fluoro-3-methyl-1H-indol-7-yl)-1,4,4-trimethyl-5H-[1,2,4]triazolo[4,3-a]quinoxaline]
1 to 15	Cc1nnc2n1-c1c(cc(F)c(-c3cccc4c3ccn4S(=O)(=O)C3CCCC3)c1F)NC2(C)C [Example 201, 8-[1-(Cyclopentylsulfonyl)-1H-indol-4-yl]-7,9-difluoro-1,4,4-trimethyl-5H-[1,2,4]triazolo[4,3-a]quinoxaline]
< 0.1	COc1c(-c2cc(F)cc3c2ccn3S(C)(=O)=O)c(F)cc2c1-n1c(C)nnc1C(C)(C)N2 [Example 250, 7-Fluoro-8-(6-fluoro-1-methylsulfonyl-1H-indol-4-yl)-9-methoxy-1,4,4-trimethyl-5H-[1,2,4]triazolo[4,3-a]quinoxaline]
0.1 to 1	Cc1cc(-c2c(F)cc3c(c2C(F)F)-n2c(C)nnc2C(C)(C)N3)c2ccn(S(C)(=O)=O)c2c1 [Example 478, 9-(Difluoro-methyl)-7-fluoro-1,4,4-trimethyl-8-(6-methyl-1-methylsulfonyl-1H-indol-4-yl)-5H-[1,2,4]triazolo[4,3-a]quinoxaline]
0.1 to 1	COCCn1ccc2c(-c3c(F)cc4c(c3C(F)F)-n3c(C)nnc3C(C)(C)N4)cccc21 [Example 292, 9-(Difluoro-methyl)-7-fluoro-8-[1-(2-methoxy-ethyl)-1H-indol-4-yl]-1,4,4-trimethyl-5H-[1,2,4]triazolo[4,3-a]quinoxaline]
0.1 to 1	Cc1nnc2n1-c1c(cc(F)c(-c3cc(C(F)(F)F)cc4[nH]ccc34)c1C(F)(F)F)NC2(C)C [Example 473, 7-Fluoro-1,4,4-trimethyl-9-(trifluoromethyl)-8-[6-(trifluoromethyl)-1H-indol-4-yl]-5H-[1,2,4]triazolo[4,3-a] quinoxaline]
< 0.1	COc1cc2c(c(C(F)(F)F)c1-c1cccc3c(C)c[nH]c13)-n1c(C)nnc1C(C)(C)N2 [Example 357, 7-Methoxy-1,4,4-trimethyl-8-(3-methyl-1H-indol-7-yl)-9-(trifluoromethyl)-5H-[1,2,4]triazolo[4,3-a]quinoxaline]
1 to 15	Cc1nnc2n1-c1c(cc(F)c(-c3cccc4c3ccn4CC(=O)N(C)C)c1F)NC2(C)C [Example 212, 2-[4-(7,9-Difluoro-1,4,4-trimethyl-5H-[1,2,4]triazolo[4,3-a]quinoxalin-8-yl)-1H-indol-1-yl]-N,N-dimethyl-acetamide]
0.1 to 1	Cc1cc2c(c(F)c1-c1cc(F)cc3c1ccn3C)-n1c(C)nnc1C(C)(C)N2 [Example 520, 9-Fluoro-8-(6-fluoro-1-methyl-1H-indol-4-yl)-1,4,4,7-tetramethyl-5H-[1,2,4]triazolo[4,3-a]quinoxaline]
1 to 15	COc1cc2c(c(F)c1-c1cccc3c1ccn3S(C)(=O)=O)-n1c(C)nnc1C(C)(C)N2 [Example 263, 9-Fluoro-7-methoxy-1,4,4-trimethyl-8-(1-methylsulfonyl-1H-indol-4-yl)-5H-[1,2,4]triazolo[4,3-a]quinoxaline]
< 0.1	Cc1c(-c2cc(F)cc3c(C)c[nH]c23)ccc2c1-n1c(C)nnc1C(C)(C)N2 [Example 452, 8-(5-Fluoro-3-methyl-1H-indol-7-yl)-1,4,4,9-tetramethyl-5H-[1,2,4]triazolo[4,3-a]quinoxaline]
